{"source": "patent US20240238244A1", "about": "“USE OF A COMPOUND SUCH AS […] TREATING A VIRAL PULMONARY DISEASE” (4LIVING BIOTECH, priority 2021, published 2024)", "key": {"[1]": {"test_system": "H3N2 influenza A virus strain Scotland/20/74"}, "[2]": {"test_system": "H3N2 influenza A virus strain Scotland/20/74", "settings": "day 7; for Mean necrosis/cell death score: Influenza group 0.90; for Mean edema/HM/congestion score: Influenza group 1.50; for Mean inflammation score: Influenza group 1.90; for Mean total score according to Meyerholz and Beck: Influenza group 4.50"}, "[3]": {"test_system": "H3N2 influenza A virus strain Scotland/20/74", "settings": "day 7; for Mean IL-17 levels in lung homogenates: Influenza group 575.58, non-infected 874.47; for Mean IL-1β levels in lung homogenates: Influenza group 3502.64, non-infected 1347.22; for Mean TNFα levels in lung homogenates: Influenza group 11038.49, non-infected 11879.58; for Mean IL-6 levels in lung homogenates: Influenza group 15055.10, non-infected 2412.49; for Mean C5a levels in lung homogenates: Influenza group 3758066.67, non-infected 2540416.67; for Mean CRP levels in lung homogenates: Influenza group 9243070.24, non-infected 2718616.67"}, "[4]": {"test_system": "H3N2 influenza A virus strain Scotland/20/74", "settings": "day 7; for Percentage of fibrocytes recruited in the lung: Infected group 28.05±26.78%, Not-infected 7.58±1.70%", "description": "Treatments were administered twice a day subcutaneously (SC) in mice from day 1 to day 6 by grasping the skin along back of mice. The needle was inserted at base of skin old between thumb and finger and solution was injected. Plerixafor® was administered (100 μl) twice a day to group “Infected+Plerixafor 1 mg/kg”, “Infected+Plerixafor 3 mg/kg”, and “Infected+Plerixafor 10 mg/kg”. Thus, mice received daily 1, 3 and 10 mg/kg for 7 days for group “Infected+Plerixafor 1 mg/kg”, “Infected+Plerixafor 3 mg/kg”, and “Infected+Plerixafor 10 mg/kg” respectively. Group “Infected” received water twice a day (100 μl).\nThe percentage of general fibrocytes was evaluated in lung by flow cytometry analysis. The proportion of fibrocytes was assessed using a combination of Antibody/Fluorochrome, i.e. CD45+, FSP1+, and their viability was assessed using the Live Dead cell viability assay. For each tested condition, a general gating strategy was followed to identify the different sub-populations. First, cells of interest were selected according to granulometry and size events via the FSC-H (Forward Scatter Height) and SSC-H (Side Scatter Height) parameters. Then, on the selected cells, fibrocytes were identified as CD45+/FSP1+ cells.\nThe percentage of fibrocytes recruited in the lung was evaluated at day 7 for 4 mice per group (3 for non-infected group)."}, "[5]": {"settings": "Plerixafor 2.5 mg/kg daily SC (group 3M)"}, "[6]": {"settings": "Plerixafor 5 mg/kg daily SC (group 4M)"}, "[7]": {"settings": "Plerixafor 10 mg/kg daily SC (group 5M)"}, "[8]": {"settings": "Plerixafor 20 mg/kg daily SC (group 6M)"}, "[9]": {"settings": "Plerixafor 20 mg/kg daily SC (group 6M), p<0.01"}, "[10]": {"settings": "Plerixafor at 2, 5, 5, 10 and 20 mg/kg"}, "[11]": {"settings": "Plerixafor at 2, 5, 5 and 10 mg/kg"}}, "note": "“And” between values parts separate entries of the source, which are not always exact repeats. Identical values can stand only once. Like-named read-outs stand apart in the source and are kept apart here.", "data": [{"smiles": "c1cc(CN2CCCNCCNCCCNCC2)ccc1CN1CCCNCCNCCCNCC1", "note": "[Plerixafor, 1,1′-[1,4-phenylene-bis(methylene)]-bis-1,4,8,11-tetraazacyclotetradecane]", "values": [{"measurement": "BW (body weight) 7 days after the infection", "setting": "[1]; Plerixafor 20 mg/kg daily (10 mg/kg SC twice a day, day 1 to 6), day 7, influenza group 94±5%, non-infected 103±4%, p<0.05", "value": "97±5", "unit": "%"}, {"measurement": "Modulation of BW loss", "setting": "[1]; Plerixafor at doses inferior or equal to 10 mg/kg daily, SC twice a day, day 1 to 6", "value": "did not modulate BW loss"}, {"measurement": "Mean necrosis/cell death score", "setting": "[2]; [5]", "value": 0.50}, {"measurement": "Mean edema/HM/congestion score", "setting": "[2]; [5]", "value": 0.70}, {"measurement": "Mean inflammation score", "setting": "[2]; [5]", "value": 1.40}, {"measurement": "Mean total score according to Meyerholz and Beck", "setting": "[2]; [5]", "value": 2.70}, {"measurement": "Mean necrosis/cell death score", "setting": "[2]; [6]", "value": 0.80}, {"measurement": "Mean edema/HM/congestion score", "setting": "[2]; [6]", "value": 0.90}, {"measurement": "Mean inflammation score", "setting": "[2]; [6]", "value": 2.00}, {"measurement": "Mean total score according to Meyerholz and Beck", "setting": "[2]; [6]", "value": 4.00}, {"measurement": "Mean necrosis/cell death score", "setting": "[2]; [7]", "value": 0.50}, {"measurement": "Mean edema/HM/congestion score", "setting": "[2]; [7]", "value": 0.50}, {"measurement": "Mean inflammation score", "setting": "[2]; [7]", "value": 1.70}, {"measurement": "Mean total score according to Meyerholz and Beck", "setting": "[2]; [7]", "value": 2.90}, {"measurement": "Mean necrosis/cell death score", "setting": "[2]; [8]", "value": "0.40±0.70 and 0.40"}, {"measurement": "Mean edema/HM/congestion score", "setting": "[2]; [8]", "value": "0.60±0.52 and 0.60"}, {"measurement": "Mean inflammation score", "setting": "[2]; [8]", "value": "1.60±1.17 and 1.60"}, {"measurement": "Mean total score according to Meyerholz and Beck", "setting": "[2]; [8]", "value": "2.80±2.35 and 2.80"}, {"measurement": "Severity, distribution and incidence of pulmonary lesions in comparison to influenza treated mice", "setting": "[2]; groups 3M, 4M, 5M and 6M (Plerixafor 2.5, 5, 10, 20 mg/kg daily SC)", "value": "slightly lower"}, {"measurement": "Mean IL-17 levels in lung homogenates", "setting": "[3]; [5]", "value": "748.08 pg/ml/g of tissue"}, {"measurement": "Mean IL-1β levels in lung homogenates", "setting": "[3]; [5]", "value": "4317.27 pg/ml/g of tissue"}, {"measurement": "Mean TNFα levels in lung homogenates", "setting": "[3]; [5]", "value": "8983.01 pg/ml/g of tissue"}, {"measurement": "Mean IL-6 levels in lung homogenates", "setting": "[3]; [5]", "value": "11166.93 pg/ml/g of tissue"}, {"measurement": "Mean C5a levels in lung homogenates", "setting": "[3]; [5]", "value": "3699919.44 pg/ml/g of tissue"}, {"measurement": "Mean CRP levels in lung homogenates", "setting": "[3]; [5]", "value": "9241738.89 pg/ml/g of tissue"}, {"measurement": "Mean IL-17 levels in lung homogenates", "setting": "[3]; [6]", "value": "663.57 pg/ml/g of tissue"}, {"measurement": "Mean IL-1β levels in lung homogenates", "setting": "[3]; [6]", "value": "2534.11 pg/ml/g of tissue"}, {"measurement": "Mean TNFα levels in lung homogenates", "setting": "[3]; [6]", "value": "9307.38 pg/ml/g of tissue"}, {"measurement": "Mean IL-6 levels in lung homogenates", "setting": "[3]; [6]", "value": "11059.46 pg/ml/g of tissue"}, {"measurement": "Mean C5a levels in lung homogenates", "setting": "[3]; [6]", "value": "3440259.52 pg/ml/g of tissue"}, {"measurement": "Mean CRP levels in lung homogenates", "setting": "[3]; [6]", "value": "7792352.38 pg/ml/g of tissue"}, {"measurement": "Mean IL-17 levels in lung homogenates", "setting": "[3]; [7]", "value": "799.98 pg/ml/g of tissue"}, {"measurement": "Mean IL-1β levels in lung homogenates", "setting": "[3]; [7]", "value": "3319.66 pg/ml/g of tissue"}, {"measurement": "Mean TNFα levels in lung homogenates", "setting": "[3]; [7]", "value": "11138.01 pg/ml/g of tissue"}, {"measurement": "Mean IL-6 levels in lung homogenates", "setting": "[3]; [7]", "value": "13927.98 pg/ml/g of tissue"}, {"measurement": "Mean C5a levels in lung homogenates", "setting": "[3]; [7]", "value": "3519038.68 pg/ml/g of tissue"}, {"measurement": "Mean CRP levels in lung homogenates", "setting": "[3]; [7]", "value": "8406400.43 pg/ml/g of tissue"}, {"measurement": "Mean IL-17 levels in lung homogenates", "setting": "[3]; [8]", "value": "603.22 pg/ml/g of tissue"}, {"measurement": "Mean IL-1β levels in lung homogenates", "setting": "[3]; [8]", "value": "2805.78 pg/ml/g of tissue"}, {"measurement": "Mean TNFα levels in lung homogenates", "setting": "[3]; [8]", "value": "6224.51±3014.54 pg/ml/g of tissue and 6224.51 pg/ml/g of tissue"}, {"measurement": "Mean IL-6 levels in lung homogenates", "setting": "[3]; Plerixafor 20 mg/kg daily SC (group 6M), p<0.05", "value": "5408.82±3539.57 pg/ml/g of tissue and 5408.82 * pg/ml/g of tissue"}, {"measurement": "Mean C5a levels in lung homogenates", "setting": "[3]; [9]", "value": "2220172.76±972810.94 pg/ml/g of tissue and 2220172.76 pg/ml/g of tissue"}, {"measurement": "Mean CRP levels in lung homogenates", "setting": "[3]; [9]", "value": "4488307.08±2059120.87 pg/ml/g of tissue and 4488307.08 pg/ml/g of tissue"}, {"measurement": "Modulation of IL-1β levels", "setting": "[3]; [10]", "value": "did not significantly modulate"}, {"measurement": "Modulation of IL-17 levels", "setting": "[3]; [10]", "value": "did not significantly modulate"}, {"measurement": "Modulation of C5a levels", "setting": "[3]; [11]", "value": "did not significantly modulate"}, {"measurement": "Modulation of IL-6 levels in comparison to Influenza group", "setting": "[3]; [11]", "value": "did not significantly modulate"}, {"measurement": "Modulation of TNFα levels", "setting": "[3]; [11]", "value": "did not significantly modulate"}, {"measurement": "Modulation of CRP levels", "setting": "[3]; Plerixafor at 2.5, 5 and 10 mg/kg", "value": "did not significantly modulate"}, {"measurement": "Percentage of fibrocytes recruited in the lung", "setting": "[4]; Infected+Plerixafor 1 mg/kg daily SC", "value": "19.77±19.93", "unit": "%"}, {"measurement": "Percentage of fibrocytes recruited in the lung", "setting": "[4]; Infected+Plerixafor 3 mg/kg daily SC", "value": "12.90±5.44", "unit": "%"}, {"measurement": "Percentage of fibrocytes recruited in the lung", "setting": "[4]; Infected+Plerixafor 10 mg/kg daily SC", "value": "23.86±18.39", "unit": "%"}, {"measurement": "Effect on the recruitment of fibrocytes in the lung", "setting": "[4]; whatever the Plerixafor dosage tested (1, 3, 10 mg/kg daily), no dose-effect", "value": "does not affect significantly"}]}]}
